Data from patent publication US12637425B2, “Compounds and formulations for treating ophthalmic diseases” (Visus Therapeutics, Inc., priority 2020, dated 2026).

Target: T1, Recombinant cryAB(R120G) protein (Homo sapiens, UniProt P02511, R120G)
T1 sequence (P02511 1-175 R120G): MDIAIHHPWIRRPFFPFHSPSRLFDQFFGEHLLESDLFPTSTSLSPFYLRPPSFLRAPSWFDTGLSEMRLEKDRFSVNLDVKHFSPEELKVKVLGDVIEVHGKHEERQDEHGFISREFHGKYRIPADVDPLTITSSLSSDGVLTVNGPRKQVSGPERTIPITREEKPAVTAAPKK
Experiment: Kinetic turbidity aggregation assay of recombinant cryAB(R120G)
Type: biochemical
Conditions: for inhibition at 25 µM: 25 μM compound, read-out: % Inhibition of Protein Aggregation, 25 μM cmpd; for inhibition at 25 µM / inhibition at 100 µM: 15 μM cryAB(R120G), 42° C., absorbance at 550 nm; for inhibition at 100 µM: 100 μM compound, read-out: % Inhibition of Protein Aggregation, 100 μM cmpd; for IC50: inhibition of cryAB(R120G) protein aggregation
Experimental: Example A-1: Kinetic Turbidity Aggregation Assay of Recombinant cryAB(R120)
Recombinant cryAB(R120G) protein was diluted to 100 μM in assay buffer (50 mM Tris, 100 mM NaCl, 5 mM DTT, 0.01% Triton X-100, 0.05% PEG-8000). Compounds were dissolved in DMSO at 10 mM then typically diluted to 2.5 mM in DMSO and serially diluted 2-fold as necessary. To a 384-well black microplate in quadruplicate was added 81 μL assay buffer, followed by 15 μL protein solution, and 4 μL compound to give a final concentration of 15 μM cryAB(R120G) protein in 4% DMSO. […] N.D. is not determined.

In the case of `Cn1ccc2ccc(S(=O)(=O)NCC(c3cn(C)c4ccccc34)N3CCCC3)cc21` (stereo not shown) [Compound 33, 1-methyl-N-(2-(1-methyl-1H-indol-3-yl)-2-(pyrrolidin-1-yl)ethyl)-1H-indole-6-sulfonamide], the inhibition at 25 µM is reported as 27% and the inhibition at 100 µM is reported as 82.8%.
For `CC(=O)N[C@H]1CCN(C(CNS(=O)(=O)c2ccc3cc[nH]c3c2)c2cn(C)c3ccccc23)C1` (stereo partly drawn) [Compound 35, N-((3S)-1-(2-(1H-indole-6-sulfonamido)-1-(1-methyl-1H-indol-3-yl)ethyl)pyrrolidin-3-yl)acetamide], the inhibition at 25 µM was -19% and the inhibition at 100 µM was 41.7%.
`Cn1cc(C(CNS(=O)(=O)c2ccc3cc[nH]c3c2)N2CC[C@H](F)C2)c2ccccc21` (stereo partly drawn) [Compound 36, N-(2-((S)-3-fluoropyrrolidin-1-yl)-2-(1-methyl-1H-indol-3-yl)ethyl)-1H-indole-6-sulfonamide] was tested, and the inhibition at 25 µM was 99.7%, the inhibition at 100 µM was 83.9% and the IC50 was no more than 10 µM.
With `CCN(C)C(CNS(=O)(=O)c1ccc2cc[nH]c2c1)c1cn(C)c2ccccc12` (stereo not shown) [Compound 37, N-(2-(ethyl(methyl)amino)-2-(1-methyl-1H-indol-3-yl)ethyl)-1H-indole-6-sulfonamide] the inhibition at 25 µM was 92.8%, the inhibition at 100 µM was 99.9% and the IC50 was no more than 10 µM.
In the case of `CCN(CC)C(CNS(=O)(=O)c1ccc2cc[nH]c2c1)c1cn(C)c2ccccc12` (stereo not shown) [Compound 38, N-(2-(diethylamino)-2-(1-methyl-1H-indol-3-yl)ethyl)-1H-indole-6-sulfonamide], the inhibition at 25 µM is reported as 57%, the inhibition at 100 µM is reported as 99.8% and the IC50 is reported as 10 to 50 µM.
`CN1CCN(C(CNS(=O)(=O)c2ccc3cc[nH]c3c2)c2cn(C)c3ccccc23)CC1` (stereo not shown) [Compound 39, N-(2-(1-methyl-1H-indol-3-yl)-2-(4-methylpiperazin-1-yl)ethyl)-1H-indole-6-sulfonamide] showed an inhibition at 25 µM of 18% and an inhibition at 100 µM of 82.5%.
In the case of `Cn1cc(C(CNS(=O)(=O)c2ccc3cc[nH]c3c2)N2CCC(O)CC2)c2ccccc21` (stereo not shown) [Compound 40, N-(2-(4-hydroxypiperidin-1-yl)-2-(1-methyl-1H-indol-3-yl)ethyl)-1H-indole-6-sulfonamide], the inhibition at 25 µM is reported as 16% and the inhibition at 100 µM is reported as 79.7%.
`CN(C)C(CNS(=O)(=O)c1ccc2cc[nH]c2c1)c1cn(C)c2ccc(Cl)cc12` (stereo not shown) [Compound 42, N-(2-(5-chloro-1-methyl-1H-indol-3-yl)-2-(dimethylamino)ethyl)-1H-indole-6-sulfonamide] was tested, and the inhibition at 25 µM was 91%, the inhibition at 100 µM was 96.2% and the IC50 was no more than 10 µM.
Work on `Cn1cc(C(CNS(=O)(=O)c2ccc3cc[nH]c3c2)N2CC[C@H](O)C2)c2ccccc21` (stereo partly drawn) [Compound 43, N-(2-((S)-3-hydroxypyrrolidin-1-yl)-2-(1-methyl-1H-indol-3-yl)ethyl)-1H-indole-6-sulfonamide] yielded an inhibition at 25 µM of 20% and an inhibition at 100 µM of 98.6%.
Compound `Cn1cc(C(CNS(=O)(=O)c2ccc3cc[nH]c3c2)N2CC[C@@H](O)C2)c2ccccc21` (stereo partly drawn) [Compound 44, N-(2-((R)-3-hydroxypyrrolidin-1-yl)-2-(1-methyl-1H-indol-3-yl)ethyl)-1H-indole-6-sulfonamide] has an inhibition at 25 µM of 82%, an inhibition at 100 µM of 99.7% and an IC50 of no more than 10 µM.
With `Cn1cc(C(CNS(=O)(=O)c2ccc3cc[nH]c3c2)N2CC[C@@H](F)C2)c2ccccc21` (stereo partly drawn) [Compound 45, N-(2-((R)-3-fluoropyrrolidin-1-yl)-2-(1-methyl-1H-indol-3-yl)ethyl)-1H-indole-6-sulfonamide] the inhibition at 25 µM was 95% and the inhibition at 100 µM was 69.3%.
`Cn1cc(C(CNS(=O)(=O)c2ccc3cc[nH]c3c2)N2CCN(CCO)CC2)c2ccccc21` (stereo not shown) [Compound 46, N-(2-(4-(2-hydroxyethyl)piperazin-1-yl)-2-(1-methyl-1H-indol-3-yl)ethyl)-1H-indole-6-sulfonamide] was tested, and the inhibition at 25 µM was -4% and the inhibition at 100 µM was 63.1%.
`COC1CCN(C(CNS(=O)(=O)c2ccc3cc[nH]c3c2)c2cn(C)c3ccccc23)CC1` (stereo not shown) [Compound 47, N-(2-(4-methoxypiperidin-1-yl)-2-(1-methyl-1H-indol-3-yl)ethyl)-1H-indole-6-sulfonamide] was tested, and the inhibition at 25 µM was 32% and the inhibition at 100 µM was 86.9%.
`C[C@H]1CCCN1C(CNS(=O)(=O)c1ccc2cc[nH]c2c1)c1cn(C)c2ccccc12` (stereo partly shown) [Compound 48] showed an inhibition at 25 µM of 23% and an inhibition at 100 µM of 76.9%.
Compound `Cn1cc(C(CNS(=O)(=O)c2ccc3cc[nH]c3c2)Nc2ccncc2)c2ccccc21` (stereo not shown) [Compound 49, N-(2-(1-methyl-1H-indol-3-yl)-2-(pyridin-4-ylamino)ethyl)-1H-indole-6-sulfonamide] has an inhibition at 25 µM of 47%, an inhibition at 100 µM of 99.2% and an IC50 of 10 to 50 µM.
Work on `Cn1cc(C(CNS(=O)(=O)c2ccc3cc[nH]c3c2)NCc2ccccc2)c2ccccc21` (stereo not shown) [Compound 50, N-(2-(benzylamino)-2-(1-methyl-1H-indol-3-yl)ethyl)-1H-indole-6-sulfonamide] yielded an inhibition at 25 µM of 95%, an inhibition at 100 µM of 94.1% and an IC50 of no more than 10 µM.
Work on `Cn1cc(C(CNS(=O)(=O)c2ccc3cc[nH]c3c2)Nc2ccccc2)c2ccccc21` (stereo not shown) [Compound 51, N-(2-(1-methyl-1H-indol-3-yl)-2-(phenylamino)ethyl)-1H-indole-6-sulfonamide] yielded an inhibition at 25 µM of 46% and an inhibition at 100 µM of 80.4%.
`Cn1cc(C(CNS(=O)(=O)c2ccc3cc[nH]c3c2)N2CCC(C)(C)C2)c2ccccc21` (stereo not shown) [Compound 52, N-(2-(3,3-dimethylpyrrolidin-1-yl)-2-(1-methyl-1H-indol-3-yl)ethyl)-1H-indole-6-sulfonamide] showed an inhibition at 25 µM of 62% and an inhibition at 100 µM of 96.2%.
Compound `C[C@@H]1CCCN1[C@H](CNS(=O)(=O)c1ccc2cc[nH]c2c1)c1cn(C)c2ccccc12` [Compound 53, N-((S)-2-(1-methyl-1H-indol-3-yl)-2-((R)-2-methylpyrrolidin-1-yl)ethyl)-1H-indole-6-sulfonamide] has an inhibition at 25 µM of 99.6%, an inhibition at 100 µM of 99.9% and an IC50 of no more than 10 µM.
`Cn1cc(C(CNS(=O)(=O)c2ccc3cc[nH]c3c2)N2CCCC2)c2ncccc21` (stereo not shown) [Compound 54, N-(2-(1-methyl-1H-pyrrolo[3,2-b]pyridin-3-yl)-2-(pyrrolidin-1-yl)ethyl)-1H-indole-6-sulfonamide] gave an inhibition at 25 µM of -41% and an inhibition at 100 µM of 66%.
`C[C@@H]1CCCN1[C@@H](CNS(=O)(=O)c1ccc2cc[nH]c2c1)c1cn(C)c2ccccc12` [Compound 55, N-((R)-2-(1-methyl-1H-indol-3-yl)-2-((R)-2-methylpyrrolidin-1-yl)ethyl)-1H-indole-6-sulfonamide] showed an inhibition at 25 µM of 33%, an inhibition at 100 µM of 99.6% and an IC50 of 50 to 100 µM.
`CN(C)C(CNS(=O)(=O)c1ccc2cc[nH]c2c1)c1cccc2cccnc12` (stereo not shown) [Compound 57, N-(2-(dimethylamino)-2-(quinolin-8-yl)ethyl)-1H-indole-6-sulfonamide] gave an inhibition at 25 µM of 25% and an inhibition at 100 µM of 82.4%.
Compound `Cn1cc([C@@H](CNS(=O)(=O)c2ccc3cc[nH]c3c2)N2CC[C@@H](c3ccccc3)C2)c2ccccc21` [Compound 58, N-((S)-2-(1-methyl-1H-indol-3-yl)-2-((S)-3-phenylpyrrolidin-1-yl)ethyl)-1H-indole-6-sulfonamide] has an inhibition at 25 µM of -8% and an inhibition at 100 µM of 66.7%.
